This is an account of results in US20030105046A1, “Interleukin converting enzyme (ICE) and central nervous system damage” (The General Hospital Corporation, priority 1997, published 2003).

Assay [1] has as its system traumatic brain injury in C57BL/6 mice. Kind of assay: Weight drop traumatic brain injury, lesion volume by TTC staining. The assay is classed as in vivo, mouse. How it is done: Brain trauma experiments and lesion quantification were performed essentially as described (Chan, P. H., et al., Ann. NY Acad. Sci. 738:93-103 (1994)). Spontaneously ventilating adult mice were initially anesthetized with halothane in 70% N2O and 30% O2, and fixed in a stereotactic frame. Before trauma, an atraumatic craniectomy was performed by removing the right parietal bone posterior to the coronal, lateral to the sagittal, and anterior to the lambdoid suture. Laterally, the craniectomy was extended to the insertion of the temporalis muscle. […] A 20 g weight was dropped inside a cylinder from a height of 150 mm onto the piston (final speed v=1.70 m/s). Twenty-four hours after trauma, brains were removed and sectioned into five coronal (2 mm) slices and stained with 2% 2,3,5-triphenyl tetrazolium chloride (TTC) as described for a weight drop trauma model (Chan, P. H., et al., Ann. NY Acad. Sci. 738:93-103 (1994)). Surgical procedure as well as quantification of lesion size was performed by an investigator naive to the animal identity. Lesion volume was calculated using an image analysis system (M4, Imaging Research, St. Catherines, Ontario, Canada) from the total lesion volume integrated from the volumes of each single section, after subtracting the volume of the deficient cortex as caused by piston penetration. The volume of the piston penetration was calculated as that of a cylinder (pr^2h=3.14×1.5^2×3 mm^3=21.2 mm^3), where r is the radius of the piston, and h the depth of penetration. The trauma protocol was approved by the IACUC. The NSE-M17Z and wild-type littermate mice were bred from C57BL/6 background, and the wild-type mice used for zVAD-fink injection experiments were C57BL/6 (Taconic Farms, Germantown, N.Y.). NSE-M17Z mice were genotyped as previously described (Friedlander, R. M., et al., J. Exp. Med. 185:933-940 (1997)). zVAD-fmk (480 ng) or vehicle (DMSO 0.4%) was injected i.c.v. (2 μl; bregma −0.9 mm lateral, −0.1 mm posterior, −3.1 mm deep) 1 hour before or 1 hour after trauma.
Data are presented as mean±SEM. Statistical comparisons were made by Student's t-test. For comparison of lesion size two-way ANOVA followed by Tukey posthoc tests was applied. P<0.05 was considered statistically significant. For statistical evaluation by Student's t-test, data on OH production was log transformed.

For assay [2], the target named is Interleukin-1beta converting enzyme (ICE; caspase-1), wild-type murine, endogenous (mouse) (UniProt P29452). Kind of assay: cell-based or functional assay.
UniProt P29452, sequence (P29452 whole entry D56N): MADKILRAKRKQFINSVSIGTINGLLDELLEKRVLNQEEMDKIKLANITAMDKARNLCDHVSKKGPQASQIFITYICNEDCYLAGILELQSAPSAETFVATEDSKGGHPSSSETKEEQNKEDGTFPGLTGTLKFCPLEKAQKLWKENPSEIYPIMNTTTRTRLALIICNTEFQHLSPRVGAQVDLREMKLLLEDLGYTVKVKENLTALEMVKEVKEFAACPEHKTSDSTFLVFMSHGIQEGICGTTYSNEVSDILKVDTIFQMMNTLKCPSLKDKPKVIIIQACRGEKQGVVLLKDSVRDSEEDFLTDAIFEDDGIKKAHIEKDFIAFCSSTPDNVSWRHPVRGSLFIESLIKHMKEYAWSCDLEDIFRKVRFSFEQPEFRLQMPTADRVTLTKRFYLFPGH
For assay [3], the system named is apoptosis in an cell-free system. Particulars: Nicholson et al., Nature 376 (1995), read-out: Dose causing 50% inhibition of apoptosis; cited from earlier work.

Consider “N-benzyloxycarbonyl-Val-Ala-Asp-fluoromethylketone [zVAD-fink]”, for which the “Total lesion volume vs. vehicle (significance)” value in assay [1] (480 ng i.c.v. 1 hour after trauma, 24 hours following impact) is listed as “not significantly different”. Further, in assay [1] (480 ng i.c.v. 1 hour after trauma, P<0.05, n=5), the “Size of lesion in the two most anterior sections (2-6 mm) vs. vehicle” value is given as “significantly reduced”. Besides, the “Reduction of total lesion volume vs. vehicle-injected mice” value in assay [1] (480 ng i.c.v. 1 hour prior to impact, lesion assessed 24 hours following trauma) is on record as 53%. Besides, in assay [1] (480 ng i.c.v. one hour following trauma, lesion assessed 24 hours following trauma), the “Reduction of lesion volume vs. vehicle-injected mice” value was determined as 19%.
The substance “fused mutant ICE (C284G)-lacZ protein (M17Z), expressed in neurons of NSE-M17Z transgenic mice (from UniProt P29452 1-402)” showed a mature IL-1β in whole brain lysates after systemic LPS challenge (ELISA specific for mature IL-1β) in assay [2] of 74.7 % less.
As for Ac-DEVD-CHO, the IC50 in assay [3] was 1 µM.
